Measurements: ChEMBL document CHEMBL5120944, “Neocucurbols A-H, Phomactin Diterpene Derivatives from the Marine-Derived Fungus Neocucurbitaria unguis-hominis FS685” (J Nat Prod, 2022)

Experiments:
Assay type in all cases: toxicity, cell-based
[1] = Cytotoxicity against human A549 cells assessed as reduction in cell viability after 24 hrs by SRB assay
[2] = Cytotoxicity against human MCF7 cells assessed as reduction in cell viability after 24 hrs by SRB assay
[3] = Cytotoxicity against human HepG2 cells assessed as reduction in cell viability after 24 hrs by SRB assay
[4] = Cytotoxicity against human SF-268 cells assessed as reduction in cell viability after 24 hrs by SRB assay

Measured: IC50 at 24 h

C=C1CC[C@@]2(C)[C@H](C)C[C@@H]3O[C@]3([C@@H]3[C@@H]1CC[C@](C)(O)[C@H]3O)[C@H]2C
> 10 µM: all assays above

CC1=CC[C@@H]2[C@@]3(C)CC[C@@]4(C)[C@H](C)[C@@H](O)C=C5[C@@]2(O[C@@H]3[C@]54O)[C@H]1O
> 10 µM: all assays above

CC1=CC[C@H]2[C@]3(O[C@H]4[C@]2(C)[C@@H](O)C[C@@]2(C)[C@H](C)CC=C3[C@@]42O)[C@H]1O
> 10 µM: all assays above

C[C@@H]1CC=C2[C@H]3[C@H](O)[C@@](C)(O)CC[C@@H]3[C@@](C)(O)CC[C@]1(C)[C@@H]2C
> 10 µM: all assays above

CC1=CC[C@@H]2[C@@]3(C)CC[C@@]4(C)[C@H](C)CC(=O)[C@H]5[C@@]2(O[C@@H]3[C@]54O)[C@H]1O
> 10 µM: all assays above

C/C1=C/C[C@@]2(C)[C@H](C)CC=C([C@@H]3[C@@H]1CC[C@](C)(O)[C@H]3O)[C@H]2C
> 10 µM: all assays above

CC1=CC[C@@H]2[C@@]3(C)CC[C@]4(C)C5=C([C@@H](O)C[C@H]4C)[C@@]2(O[C@H]53)[C@H]1O
> 10 µM: all assays above

C=C1CC[C@@]2(C)[C@H](C)CC=C([C@@H]3[C@@H]1CC[C@](C)(O)[C@H]3O)[C@H]2C
> 10 µM: all assays above
